Source: patent US20250353891A1 (MEDIMMUNE LIMITED, priority 2022, published 2025)
Starred links: 1 amine or outer side, 2 acyl side, 3 side chain; linkers in the order of their positions; H or OH if unused. Non-standard residues stand in square brackets, D forms with d. Residues, ends and D or L forms follow the SMILES beside them. Groups on a side chain read outwards from the residue. *: point of attachment. C20 diacid = O=C(O)CCCCCCCCCCCCCCCCCCC(=O)*; C18 diacid = O=C(O)CCCCCCCCCCCCCCCCC(=O)*; γGlu = O=C(O)[C@H](CCC(=O)[*:2])N[*:1]; αMeF = C[C@](N)(Cc1ccccc1)C(=O)O; AEEA = NCCOCCOCC(=O)O; Aib = CC(C)(N)C(=O)O

Experiments:
[1] = biological target: human GLP-1 receptor (hGLP-1R) (Homo sapiens, UniProt P43220); assay: cAMP production (HTRF) in CHO cells expressing hGLP-1R; type: cell-based; set-up: expressed in transfected cells; conditions: for EC50: Table 7, peptides modified at position 20, cAMP in CHO hGLP-1R cells, geometric mean, read-out: hGLP-1R EC50; for % Relative Potency Ratio: Table 7, % GLP-1R activity relative to GLP-1 / % GlucR activity relative to glucagon
Sequence of human GLP-1 receptor (hGLP-1R) (P43220 24-463): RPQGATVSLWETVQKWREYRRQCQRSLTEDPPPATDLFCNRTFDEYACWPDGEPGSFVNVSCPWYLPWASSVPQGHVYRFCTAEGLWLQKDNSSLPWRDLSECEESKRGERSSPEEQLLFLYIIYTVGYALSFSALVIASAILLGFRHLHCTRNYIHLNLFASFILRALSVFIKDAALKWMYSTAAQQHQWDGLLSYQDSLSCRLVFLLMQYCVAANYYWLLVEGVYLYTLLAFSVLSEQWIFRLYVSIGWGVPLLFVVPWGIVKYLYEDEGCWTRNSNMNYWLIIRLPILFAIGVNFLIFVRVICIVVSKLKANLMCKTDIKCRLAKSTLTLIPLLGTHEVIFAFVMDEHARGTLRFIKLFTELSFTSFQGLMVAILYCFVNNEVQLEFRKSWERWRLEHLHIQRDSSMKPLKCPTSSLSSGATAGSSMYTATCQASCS
How it was run: (§1)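 Read-out: HTRF cAMP (anti-cAMP cryptate donor, cAMP-d2 acceptor in conjugate/lysis buffer), converted to % Delta F and fitted by 4-parameter logistic for EC50. Cell densities were 1×10^5 cells/mL (hGLP-1R) or 2×10^5 cells/mL (hGCGR). Stimulation lasted 30 min at room temperature.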

[2] = biological target: human glucagon receptor (hGCGR) (Homo sapiens, UniProt P47871); assay: cAMP production (HTRF) in CHO cells expressing hGCGR; type: cell-based; set-up: expressed in transfected cells; conditions: Table 7, peptides modified at position 20; cAMP in CHO hGCGR cells; geometric mean; read-out: hGluc-R EC50
Sequence of human glucagon receptor (hGCGR) (P47871 26-477): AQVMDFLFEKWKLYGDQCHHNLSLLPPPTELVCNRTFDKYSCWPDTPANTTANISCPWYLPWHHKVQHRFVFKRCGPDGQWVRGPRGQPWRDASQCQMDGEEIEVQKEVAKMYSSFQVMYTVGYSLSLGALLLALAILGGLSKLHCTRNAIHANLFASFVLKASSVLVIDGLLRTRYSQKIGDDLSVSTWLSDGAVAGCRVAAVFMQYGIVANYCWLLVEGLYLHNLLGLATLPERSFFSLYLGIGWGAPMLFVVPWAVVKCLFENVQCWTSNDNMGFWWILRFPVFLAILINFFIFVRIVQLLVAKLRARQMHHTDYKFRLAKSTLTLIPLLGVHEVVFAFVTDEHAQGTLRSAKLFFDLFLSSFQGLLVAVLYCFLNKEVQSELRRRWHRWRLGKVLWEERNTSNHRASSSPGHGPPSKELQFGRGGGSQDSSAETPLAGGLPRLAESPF
How it was run: as §1

Structure (SMILES) | EC50 [1] | % Relative Potency Ratio [1] | EC50 [2]
CC[C@H](C)[C@H](NC(=O)[C@H](Cc1c[nH]c2ccccc12)NC(=O)[C@H](CCC(=O)O)NC(=O)[C@@H](NC(=O)[C@H](Cc1ccccc1)NC(=O)[C@H](CC(=O)O)NC(=O)[C@H](CCCCNC(=O)COCCOCCNC(=O)COCCOCCNC(=O)CC[C@H](NC(=O)CC[C@H](NC(=O)CCCCCCCCCCCCCCCCCCC(=O)O)C(=O)O)C(=O)O)NC(=O)[C@H](C)NC(=O)[C@H](C)NC(=O)[C@H](CCCNC(=N)N)NC(=O)[C@H](CO)NC(=O)[C@H](CC(=O)O)NC(=O)[C@H](CC(C)C)NC(=O)[C@](C)(Cc1ccccc1)NC(=O)[C@H](CCCCN)NC(=O)[C@H](CO)NC(=O)[C@@H](NC(=O)[C@H](CC(=O)O)NC(=O)[C@H](CO)NC(=O)[C@@H](NC(=O)[C@](C)(Cc1ccccc1)NC(=O)[C@H](CO)NC(=O)CNC(=O)[C@H](Cc1c[nH]cn1)NC(=O)C(C)(C)NC(=O)[C@@H](N)Cc1c[nH]cn1)[C@@H](C)O)C(C)C)C(C)C)C(=O)N[C@@H](C)C(=O)N[C@@H](CC(N)=O)C(=O)N[C@H](C(N)=O)[C@@H](C)O [Peptide 213] (H-H[Aib]HGS[αMeF]TSDVSK[αMeF]LDSRAAK([AEEA-AEEA-γGlu-γGlu-C20 diacid])DFVEWIANT-NH2; N-terminus assumed) | 0.534 nM | 0.5 | 0.141 nM
CC[C@H](C)[C@H](NC(=O)[C@H](Cc1c[nH]c2ccccc12)NC(=O)[C@H](CCC(N)=O)NC(=O)[C@@H](NC(=O)[C@H](Cc1ccccc1)NC(=O)[C@H](CC(=O)O)NC(=O)[C@H](CCCCNC(=O)COCCOCCNC(=O)COCCOCCNC(=O)CC[C@H](NC(=O)CCCCCCCCCCCCCCCCCCC(=O)O)C(=O)O)NC(=O)[C@H](C)NC(=O)[C@H](C)NC(=O)[C@H](CCCNC(=N)N)NC(=O)[C@H](CO)NC(=O)[C@H](CC(=O)O)NC(=O)[C@H](CC(C)C)NC(=O)[C@](C)(Cc1ccccc1)NC(=O)[C@H](CCCCN)NC(=O)[C@H](CO)NC(=O)[C@@H](NC(=O)[C@H](CC(=O)O)NC(=O)[C@H](CO)NC(=O)[C@@H](NC(=O)[C@](C)(Cc1ccccc1)NC(=O)[C@H](CO)NC(=O)CNC(=O)[C@H](Cc1c[nH]cn1)NC(=O)C(C)(C)NC(=O)[C@@H](N)Cc1c[nH]cn1)[C@@H](C)O)C(C)C)C(C)C)C(=O)N[C@@H](C)C(=O)N[C@@H](CC(N)=O)C(=O)N[C@H](C(N)=O)[C@@H](C)O [Peptide 214] (H-H[Aib]HGS[αMeF]TSDVSK[αMeF]LDSRAAK([AEEA-AEEA-γGlu-C20 diacid])DFVQWIANT-NH2) | 2.34 nM | 0.7 | 0.81 nM
CC[C@H](C)[C@H](NC(=O)[C@H](Cc1c[nH]c2ccccc12)NC(=O)[C@H](CCC(N)=O)NC(=O)[C@@H](NC(=O)[C@](C)(Cc1ccccc1)NC(=O)[C@H](CC(=O)O)NC(=O)[C@H](CCCCNC(=O)COCCOCCNC(=O)COCCOCCNC(=O)CC[C@H](NC(=O)CCCCCCCCCCCCCCCCCCC(=O)O)C(=O)O)NC(=O)[C@H](C)NC(=O)[C@H](C)NC(=O)[C@H](CCCNC(=N)N)NC(=O)[C@H](CO)NC(=O)[C@H](CC(=O)O)NC(=O)[C@H](CC(C)C)NC(=O)[C@](C)(Cc1ccccc1)NC(=O)[C@H](CCCCN)NC(=O)[C@H](CO)NC(=O)[C@@H](NC(=O)[C@H](CC(=O)O)NC(=O)[C@H](CO)NC(=O)[C@@H](NC(=O)[C@](C)(Cc1ccccc1)NC(=O)[C@H](CO)NC(=O)CNC(=O)[C@H](Cc1c[nH]cn1)NC(=O)C(C)(C)NC(=O)[C@@H](N)Cc1c[nH]cn1)[C@@H](C)O)C(C)C)C(C)C)C(=O)N[C@@H](C)C(=O)N[C@@H](CC(N)=O)C(=O)N[C@H](C(N)=O)[C@@H](C)O [Peptide 215] (H-H[Aib]HGS[αMeF]TSDVSK[αMeF]LDSRAAK([AEEA-AEEA-γGlu-C20 diacid])D[αMeF]VQWIANT-NH2; N-terminus assumed) | 7.62 nM | 0.7 | 2.61 nM
CC[C@H](C)[C@H](NC(=O)[C@H](Cc1c[nH]c2ccccc12)NC(=O)[C@H](CCC(=O)O)NC(=O)[C@@H](NC(=O)[C@](C)(Cc1ccccc1)NC(=O)[C@H](CC(=O)O)NC(=O)[C@H](CCCCNC(=O)COCCOCCNC(=O)COCCOCCNC(=O)CC[C@H](NC(=O)CCCCCCCCCCCCCCCCCCC(=O)O)C(=O)O)NC(=O)[C@H](C)NC(=O)[C@H](C)NC(=O)[C@H](CCCNC(=N)N)NC(=O)[C@H](CO)NC(=O)[C@H](CC(=O)O)NC(=O)[C@H](CC(C)C)NC(=O)[C@](C)(Cc1ccccc1)NC(=O)[C@H](CCCCN)NC(=O)[C@H](CO)NC(=O)[C@@H](NC(=O)[C@H](CC(=O)O)NC(=O)[C@H](CO)NC(=O)[C@@H](NC(=O)[C@](C)(Cc1ccccc1)NC(=O)[C@H](CO)NC(=O)CNC(=O)[C@H](Cc1c[nH]cn1)NC(=O)C(C)(C)NC(=O)[C@@H](N)Cc1c[nH]cn1)[C@@H](C)O)C(C)C)C(C)C)C(=O)N[C@@H](C)C(=O)N[C@@H](CC(N)=O)C(=O)N[C@H](C(N)=O)[C@@H](C)O [Peptide 216] (H-H[Aib]HGS[αMeF]TSDVSK[αMeF]LDSRAAK([AEEA-AEEA-γGlu-C20 diacid])D[αMeF]VEWIANT-NH2) | 18.1 nM | 0.6 | 5.67 nM

Further lines, results first:

EC50 [1] | % Relative Potency Ratio [1] | EC50 [2] | Structure (SMILES)
0.156 nM | 1.2 | 0.0937 nM | CC[C@H](C)[C@H](NC(=O)[C@H](Cc1c[nH]c2ccccc12)NC(=O)[C@H](CCC(=O)O)NC(=O)[C@@H](NC(=O)[C@H](Cc1ccccc1)NC(=O)[C@H](CC(=O)O)NC(=O)[C@H](CCCCNC(=O)COCCOCCNC(=O)COCCOCCNC(=O)CC[C@H](NC(=O)CC[C@H](NC(=O)CCCCCCCCCCCCCCCCC(=O)O)C(=O)O)C(=O)O)NC(=O)[C@H](C)NC(=O)[C@H](C)NC(=O)[C@H](CCC(N)=O)NC(=O)[C@H](CO)NC(=O)[C@H](CC(=O)O)NC(=O)[C@H](CC(C)C)NC(=O)[C@](C)(Cc1ccccc1)NC(=O)[C@H](CCCCN)NC(=O)[C@H](CO)NC(=O)[C@@H](NC(=O)[C@H](CC(=O)O)NC(=O)[C@H](CO)NC(=O)[C@@H](NC(=O)[C@](C)(Cc1ccccc1)NC(=O)[C@H](CO)NC(=O)CNC(=O)[C@H](Cc1c[nH]cn1)NC(=O)C(C)(C)NC(=O)[C@@H](N)Cc1c[nH]cn1)[C@@H](C)O)C(C)C)C(C)C)C(=O)N[C@@H](C)C(=O)N[C@@H](CC(N)=O)C(=O)N[C@H](C(N)=O)[C@@H](C)O [Peptide 210] (H-H[Aib]HGS[αMeF]TSDVSK[αMeF]LDSQAAK([AEEA-AEEA-γGlu-γGlu-C18 diacid])DFVEWIANT-NH2)
0.167 nM | 0.7 | 0.0609 nM | CC[C@H](C)[C@H](NC(=O)[C@H](Cc1c[nH]c2ccccc12)NC(=O)[C@H](CCC(N)=O)NC(=O)[C@@H](NC(=O)[C@H](Cc1ccccc1)NC(=O)[C@H](CC(=O)O)NC(=O)[C@H](CCCCNC(=O)COCCOCCNC(=O)COCCOCCNC(=O)CC[C@H](NC(=O)CC[C@H](NC(=O)CCCCCCCCCCCCCCCCCCC(=O)O)C(=O)O)C(=O)O)NC(=O)[C@H](C)NC(=O)[C@H](C)NC(=O)[C@H](CCCNC(=N)N)NC(=O)[C@H](CO)NC(=O)[C@H](CC(=O)O)NC(=O)[C@H](CC(C)C)NC(=O)[C@](C)(Cc1ccccc1)NC(=O)[C@H](CCCCN)NC(=O)[C@H](CO)NC(=O)[C@@H](NC(=O)[C@H](CC(=O)O)NC(=O)[C@H](CO)NC(=O)[C@@H](NC(=O)[C@](C)(Cc1ccccc1)NC(=O)[C@H](CO)NC(=O)CNC(=O)[C@H](Cc1c[nH]cn1)NC(=O)C(C)(C)NC(=O)[C@@H](N)Cc1c[nH]cn1)[C@@H](C)O)C(C)C)C(C)C)C(=O)N[C@@H](C)C(=O)N[C@@H](CC(N)=O)C(=O)N[C@H](C(N)=O)[C@@H](C)O [Peptide 211] (H-H[Aib]HGS[αMeF]TSDVSK[αMeF]LDSRAAK([AEEA-AEEA-γGlu-γGlu-C20 diacid])DFVQWIANT-NH2)
0.532 nM | 0.4 | 0.0975 nM | CC[C@H](C)[C@H](NC(=O)[C@H](Cc1c[nH]c2ccccc12)NC(=O)[C@H](CCC(=O)O)NC(=O)[C@@H](NC(=O)[C@H](Cc1ccccc1)NC(=O)[C@H](CC(=O)O)NC(=O)[C@H](CCCCNC(=O)COCCOCCNC(=O)COCCOCCNC(=O)CC[C@H](NC(=O)CCCCCCCCCCCCCCCCCCC(=O)O)C(=O)O)NC(=O)[C@H](C)NC(=O)[C@H](C)NC(=O)[C@H](CCCNC(=N)N)NC(=O)[C@H](CO)NC(=O)[C@H](CC(=O)O)NC(=O)[C@H](CC(C)C)NC(=O)[C@](C)(Cc1ccccc1)NC(=O)[C@H](CCCCN)NC(=O)[C@H](CO)NC(=O)[C@@H](NC(=O)[C@H](CC(=O)O)NC(=O)[C@H](CO)NC(=O)[C@@H](NC(=O)[C@](C)(Cc1ccccc1)NC(=O)[C@H](CO)NC(=O)CNC(=O)[C@H](Cc1c[nH]cn1)NC(=O)C(C)(C)NC(=O)[C@@H](N)Cc1c[nH]cn1)[C@@H](C)O)C(C)C)C(C)C)C(=O)N[C@@H](C)C(=O)N[C@@H](CC(N)=O)C(=O)N[C@H](C(N)=O)[C@@H](C)O [Peptide 212] (H-H[Aib]HGS[αMeF]TSDVSK[αMeF]LDSRAAK([AEEA-AEEA-γGlu-C20 diacid])DFVEWIANT-NH2)
